The values below come from patent publication US8507683B2, “Compounds for the treatment of hepatitis C” (Bristol-Myers Squibb Company, priority 2010, dated 2013).

The term EC50 denotes the concentration needed to bring the measured effect to its halfway point. What is called IC50 is the concentration that inhibits the measured activity by half. Read a low IC50 as higher potency.

Data set [1] has as its system genotype 1b HCV replicon in Huh-7 cells. Kind of data set: HCV replicon luciferase assay, genotype 1b. Type of data set: cell-based. Particulars: Hepatitis C virus, 1b genotype replicon. On the procedure: (§1) Cell Lines. The cell lines used to evaluate compounds consist of a human hepatocyte derived cell line (Huh-7) that constitutively expresses a genotype 1a or 1b HCV replicon containing a Renilla luciferase reporter gene. These cells were maintained in Dulbecco's modified Eagle medium (DMEM) containing 10% FBS, 100 U/mL penicillin/streptomycin and 1.0 mg/mL G418.
(§2) HCV Replicon Luciferase Assay. To evaluate compound efficacy, HCV replicon cells were seeded in 96-well plates in DMEM containing 10% FBS at a cell density of 10^4/well. Following incubation at 37° C. overnight, compounds serially diluted in DMSO were added to the cell plates. Alternatively, titrated compounds were transferred to sterile 384-well tissue-culture treated plates and the plates seeded with 50 μL of cells at a density of 2.4×10^3 cells/well in DMEM containing 4% FCS (final DMSO concentration at 0.5%). After 3 days incubation at 37° C., cells were analyzed for Renilla Luciferase activity using the EnduRen substrate (Promega cat #E6485) according to the manufacturer's directions. Briefly, the EnduRen substrate was diluted in DMEM and then added to the plates to a final concentration of 7.5 μM. The plates were incubated for at least 1 h at 37° C. then read on a TopCount NXT Microplate Scintillation and Luminescence Counter (Packard) or Viewlux Imager (PerkinElmer) using a luminescence program. The 50% effective concentration (EC50) was calculated using the exponential form of the median effect equation where EC50=100−[(δFinh/δFcon)×100].
(A replicon is a self-replicating genome or part of one, used to study replication in cells.)

Data set [2] has as its target HCV NS5B RdRp genotype 1b (Hepatitis C virus genotype 1b (isolate Con1) (HCV), UniProt Q9WMX2). Kind of data set: HCV NS5B RdRp enzyme assay. It counts as biochemical. On the procedure: HCV NS5B RdRp Cloning, Expression, and Purification. The cDNA encoding the NS5B protein of HCV, genotype 1b, was cloned into the pET21a expression vector. The protein was expressed with an 18 amino acid C-terminal truncation to enhance the solubility. The E. coli competent cell line BL21(DE3) was used for expression of the protein. Cultures were grown at 37° C. for ˜4 hours until the cultures reached an optical density of 2.0 at 600 nm. The cultures were cooled to 20° C. and induced with 1 mM IPTG. Fresh ampicillin was added to a final concentration of 50 μg/mL and the cells were grown overnight at 20° C.
Cell pellets (3 L) were lysed for purification to yield 15-24 mgs of purified NS5B. The lysis buffer consisted of 20 mM Tris-HCl, pH 7.4, 500 mM NaCl, 0.5% triton X-100, 1 mM DTT, 1 mM EDTA, 20% glycerol, 0.5 mg/ml lysozyme, 10 mM MgCl2, 15 ug/ml deoxyribonuclease I, and Complete TM protease inhibitor tablets (Roche). After addition of the lysis buffer, frozen cell pellets were resuspended using a tissue homogenizer. To reduce the viscosity of the sample, aliquots of the lysate were sonicated on ice using a microtip attached to a Branson sonicator. The sonicated lysate was centrifuged at 100,000×g for 30 minutes at 4° C. and filtered through a 0.2 μm filter unit (Corning).
The protein was purified using two sequential chromatography steps: Heparin sepharose CL-6B and polyU sepharose 4B. The chromatography buffers were identical to the lysis buffer but contained no lysozyme, deoxyribonuclease I, MgCl2 or protease inhibitor and the NaCl concentration of the buffer was adjusted according to the requirements for charging the protein onto the column. Each column was eluted with a NaCl gradient which varied in length from 5-50 column volumes depending on the column type. After the final chromatography step, the resulting purity of the enzyme is >90% based on SDS-PAGE analysis. The enzyme was aliquoted and stored at −80° C.
Standard HCV NS5B RdRp Enzyme Assay. HCV RdRp genotype 1b assays were run in a final volume of 60 μl in 96 well plates (Costar 3912) . The assay buffer is composed of 20 mM Hepes, pH 7.5, 2.5 mM KCl, 2.5 mM MgCl2, 1 mM DTT, 1.6 U RNAse inhibitor (Promega N2515), 0.1 mg/ml BSA (Promega R3961), and 2% glycerol. All compounds were serially diluted (3-fold) in DMSO and diluted further in water such that the final concentration of DMSO in the assay was 2%. HCV RdRp genotype 1b enzyme was used at a final concentration of 28 nM. A polyA template was used at 6 nM, and a biotinylated oligo-dT12 primer was used at 180 nM final concentration. Template was obtained commercially (Amersham 27-4110). Biotinylated primer was prepared by Sigma Genosys. ^3H-UTP was used at 0.6 μCi (0.29 μM total UTP). Reactions were initiated by the addition of enzyme, incubated at 30° C. for 60 min, and stopped by adding 25 μL of 50 mM EDTA containing SPA beads (4 μg/μL, Amersham RPNQ 0007). Plates were read on a Packard Top Count NXT after >1 hr incubation at room temperature.
Modified HCV NS5B RdRp Enzyme Assay. An on-bead solid phase homogeneous assay was also used to assess NS5B inhibitors (WangY-K, Rigat K, Roberts S, and Gao M (2006) Anal Biochem, 359: 106-111). The assay is a modification of the standard assay described above and was used in a 96-well or a 384-well format. […]

Data set [3] deals with genotype 1a HCV replicon in Huh-7 cells. Briefly: HCV replicon luciferase assay, genotype 1a. Type of data set: cell-based. Particulars: Hepatitis C virus, 1a genotype used for replicon data. On the procedure:
as §1
as §2, with “The 50% effective concentration (EC50) was calculated using the exponential form of the median effect equation where EC50=100−[(δFinh/δFcon)×100].” left out

Data set [4] deals with HCV. The note with it: cited from earlier work.

HCV NS5B RdRp genotype 1b, sequence (Q9WMX2 2420-2992): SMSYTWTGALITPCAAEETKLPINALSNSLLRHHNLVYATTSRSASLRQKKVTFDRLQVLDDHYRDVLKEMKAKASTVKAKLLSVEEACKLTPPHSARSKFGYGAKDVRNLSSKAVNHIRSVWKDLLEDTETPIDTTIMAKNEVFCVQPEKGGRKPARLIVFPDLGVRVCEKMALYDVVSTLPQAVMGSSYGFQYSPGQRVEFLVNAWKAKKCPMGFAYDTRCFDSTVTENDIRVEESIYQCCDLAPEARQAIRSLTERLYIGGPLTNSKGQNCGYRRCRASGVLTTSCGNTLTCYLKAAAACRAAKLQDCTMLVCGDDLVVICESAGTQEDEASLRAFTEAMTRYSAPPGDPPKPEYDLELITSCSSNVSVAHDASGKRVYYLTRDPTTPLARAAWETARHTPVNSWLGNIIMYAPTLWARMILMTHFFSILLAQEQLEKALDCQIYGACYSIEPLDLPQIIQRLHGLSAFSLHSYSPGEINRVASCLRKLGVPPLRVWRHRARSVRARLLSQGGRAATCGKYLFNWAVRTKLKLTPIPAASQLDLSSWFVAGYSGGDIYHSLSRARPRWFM

With `CNC(=O)c1c(-c2ccc(F)cc2)oc2ccc(-c3cc(C(=O)NC4(c5ccccc5)COC4)ccc3C)c(F)c12`, the EC50 in data set [1] is 0.004 µM. Moreover, in data set [2], the IC50 worked out at 0.057 µM.

`CNC(=O)c1c(-c2ccc(F)cc2)oc2ccc(-c3cc(C(=O)NC4(c5ccccn5)COC4)c(OC)cc3C)c(F)c12` returned an EC50 in data set [1] of 0.008 µM. Moreover, in data set [2], the midpoint of inhibition, the IC50, lay at 0.017 µM.

For `CNC(=O)c1c(-c2ccc(F)cc2)oc2ccc(-c3cc(C(=O)NC4(c5ncccn5)COC4)c(OC)cc3C)c(F)c12` [4-fluoro-2-(4-fluorophenyl)-5-(4-methoxy-2-methyl-5-(3-(pyrimidin-2-yl)oxetan-3-ylcarbamoyl)phenyl)-N-methylbenzofuran-3-carboxamide], it took 0.012 µM to reach a half-maximal effect in data set [1] (EC50). This molecule yielded an IC50 in data set [2] of 0.022 µM.

In data set [3], `CNC(=O)c1c(-c2ccc(F)cc2)oc2ccc(-c3cc(C(=O)NC4(c5ccccn5)COC4)ccc3C)c(F)c12` [4-fluoro-2-(4-fluorophenyl)-N-methyl-5-(2-methyl-5-(3-(pyridin-2-yl)oxetan-3-ylcarbamoyl)phenyl)benzofuran-3-carboxamide] had an EC50 of 0.024 µM. Also, in data set [2], the midpoint of inhibition, the IC50, lay at 0.024 µM.

In data set [1], `CNC(=O)c1c(-c2ccc(F)cc2)oc2ccc(-c3cc(C(=O)NC4(c5ncccn5)COC4)ccc3C)c(F)c12` [4-fluoro-2-(4-fluorophenyl)-N-methyl-5-(2-methyl-5-(3-(pyrimidin-2-yl)oxetan-3-ylcarbamoyl)phenyl)benzofuran-3-carboxamide] registered an EC50 of 0.015 µM. The molecule further had an IC50 in data set [2] of 0.01 µM.

In data set [1], `CNC(=O)c1c(-c2ccc(F)cc2)oc2ccc(-c3cc(C(=O)NC4(c5ccccn5)COC4)cc(F)c3C)c(F)c12` [4-fluoro-5-(3-fluoro-2-methyl-5-(3-(pyridin-2-yl)oxetan-3-ylcarbamoyl)phenyl)-2-(4-fluorophenyl)-N-methylbenzofuran-3-carboxamide] returned an EC50 of 0.006 µM. In data set [2], this molecule returned an IC50 of 0.016 µM.

With `CNC(=O)c1c(-c2ccc(F)cc2)oc2ccc(-c3cc(C(=O)NC4(c5ncccn5)COC4)cc(F)c3C)c(F)c12` [4-fluoro-5-(3-fluoro-2-methyl-5-(3-(pyrimidin-2-yl)oxetan-3-ylcarbamoyl)phenyl)-2-(4-fluorophenyl)-N-methylbenzofuran-3-carboxamide], in data set [1], it took 0.012 µM to reach a half-maximal effect (EC50). The same molecule had an IC50 in data set [2] of 0.006 µM.

For `CNC(=O)c1c(-c2ccc(F)cc2)oc2cc(N(CCO)S(C)(=O)=O)c(C3CC3)cc12` [HCV-796], in data set [4] (extended dosing of the combination regimens with interferon and ribavirin), the hepatic toxicity result was “hepatic toxicity observed”. The “HCV RNA levels in patients” value in data set [4] (patients, single agent) was “showed an ability to reduce HCV RNA levels in patients”.
